Patent US5110927A (The United States of America as represented by the …, priority 1987, dated 1992)
“Also recorded” adds a separate entry of the source.

Experiments:
[1] = target: α1-adrenoceptor (3H-prazosin binding sites); experiment: displacement of 3H-prazosin from rat cerebral cortical (brain) membranes; conditions: for -logIC50: 3H-prazosin displacement, rat cerebral cortical membranes; for affinity to alpha1-adrenoceptors (in words): discussion of Table 1
Method: IC50 values and apparent Ki values were determined as in Table 1.
Rat brain cortices were homogenized in approximately 30 volumes/wet weight of 50 mM Tris buffer, pH 7.4, containing 10 mM MgCl2 by use of a Polytron (setting 6 for 10 seconds). It should be noted that this buffer was used throughout the experimental procedures. The homogenate was centrifuged at 48,000×g for 10 minutes in a Sorvall RC-5B centrifuge. The resulting pellet was resuspended in buffer by use of a Polytron and recentrifuged. This process was repeated and the pellet was resuspended in approximately 200 volumes for affinity studies or 20 volumes for irreversibility experiments.
Specific binding was defined as the difference between total binding (measured in the absence of any ligand) and non-specific binding (measured in the presence of 10 microM phentolamine). Duplicate tubes were used for each condition. Reaction tubes were incubated for 30 minutes at 30° C., then diluted to 5 ml with ice cold buffer, and filtered under reduced pressure through Whatman GF/C glass fiber filters. The reaction tubes and filters were washed three additional times with buffer.

[2] = system: α1-adrenoceptor (3H-prazosin binding sites); experiment: irreversibility experiment: membranes preincubated with compound, washed, assayed for saturation of 3H-prazosin binding; parameters: species or system rat; conditions: membranes, preincubation and washing

| Compound | -logIC50 [1] | affinity to alpha1-adrenoceptors (in words) [1] | irreversible blockade / effect on 3H-prazosin binding sites (in words) [2] |
| --- | --- | --- | --- |
| COc1cc2nc(N3CCN(C(=O)[C@@H]4C[C@H]4c4ccccc4)CC3)nc(N)c2cc1OC (relative stereo) [Compound 25] | 9.29 | affinity similar to that of the cinnamoyl compound No. 9 | – |
| COc1cc2nc(N3CCN(C(=O)[C@@H]4O[C@H]4c4ccccc4)CC3)nc(N)c2cc1OC (relative stereo) [Compound 26] | 7.45 | two orders of magnitude lower than that of cyclopropane | – |
| COc1cc2nc(N3CCN(C(=O)n4ccnc4)CC3)nc(N)c2cc1OC [Compound 2] | 7.97 | low affinity | – |
| COc1cc2nc(N3CCN(C(=O)CBr)CC3)nc(N)c2cc1OC [Compound 3] | 5.27 | low affinity | – |
| COC(=O)/C=C/C(=O)N1CCN(c2nc(N)c3cc(OC)c(OC)cc3n2)CC1 [Compound 4] | 9.15 | – | – |
| COC(=O)/C=C/C=C/C(=O)N1CCN(c2nc(N)c3cc(OC)c(OC)cc3n2)CC1 [Compound 5] | 8.01 | – | – |
| C/C=C/C=C/C(=O)N1CCN(c2nc(N)c3cc(OC)c(OC)cc3n2)CC1 [Compound 6] | 8.81 | high affinity | did not irreversibly block alpha1 -adrenoceptors; also recorded: do not attach irreversibly to the receptor |
| COc1cc2nc(N3CCN(C(=O)CCc4ccccc4)CC3)nc(N)c2cc1OC [Compound 7] | 8.47 | affinity is considerably decreased | – |
| COc1cc2nc(N3CCN(C(=O)COc4ccccc4)CC3)nc(N)c2cc1OC [Compound 8] | 7.90 | affinity is considerably decreased | – |
| COc1cc2nc(N3CCN(C(=O)/C=C/c4ccc(F)cc4)CC3)nc(N)c2cc1OC [Compound 10] | 7.92 | – | – |
| COc1cc2nc(N3CCN(C(=O)C=Cc4ccc(Cl)cc4)CC3)nc(N)c2cc1OC [Compound 11] | 7.90 | – | – |
| COc1cc2nc(N3CCN(C(=O)C=Cc4ccc(Br)cc4)CC3)nc(N)c2cc1OC [Compound 12] | 7.10 | – | – |
| COc1cc2nc(N3CCN(C(=O)C=Cc4cccc(F)c4)CC3)nc(N)c2cc1OC [Compound 13] | 7.68 | – | – |
| COc1cc2nc(N3CCN(C(=O)C=Cc4c(F)c(F)c(F)c(F)c4F)CC3)nc(N)c2cc1OC [Compound 14] | 6.94 | – | – |
| COc1ccc(/C=C/C(=O)N2CCN(c3nc(N)c4cc(OC)c(OC)cc4n3)CC2)cc1 [Compound 15] | 8.47 | – | – |
| COc1cc2nc(N3CCN(C(=O)/C=C/c4ccc(N=[N+]=[N-])cc4)CC3)nc(N)c2cc1OC [Compound 16] | 9.49 | single exception; also recorded: improved the affinity | – |
| COc1cc2nc(N3CCN(C(=O)C=Cc4ccc(N=C=S)cc4)CC3)nc(N)c2cc1OC [Compound 17] | 6.99 | – | – |
| COc1cc2nc(N3CCN(C(=O)/C=C/c4ccc(NC(=O)CBr)cc4)CC3)nc(N)c2cc1OC [Compound 18] | 6.97 | – | – |
| COC(=O)/C=C/C(=O)Nc1ccc(/C=C/C(=O)N2CCN(c3nc(N)c4cc(OC)c(OC)cc4n3)CC2)cc1 [Compound 19] | 7.79 | – | – |
| COc1cc2nc(N3CCN(C(=O)C(F)=Cc4ccccc4)CC3)nc(N)c2cc1OC [Compound 20] | 7.89 | – | – |
| COc1cc2nc(N3CCN(C(=O)C(=Cc4ccccc4)N=[N+]=[N-])CC3)nc(N)c2cc1OC [Compound 21] | 8.06 | – | – |
| COc1cc2nc(N3CCN(C(=O)C(=Cc4ccccc4)c4ccccc4)CC3)nc(N)c2cc1OC [Compound 22] | 7.51 | – | – |

| Compound | -logIC50 [1] | affinity to alpha1-adrenoceptors (in words) [1] | irreversible blockade / effect on 3H-prazosin binding sites (in words) [2] |
| --- | --- | --- | --- |
| COc1cc2nc(N3CCN(C(=O)/C=C/C(=O)c4ccccc4)CC3)nc(N)c2cc1OC [Compound 23] | 7.06 | reduced affinity considerably | – |
| COc1cc2nc(N3CCN(C(=O)c4ccc5ccccc5c4)CC3)nc(N)c2cc1OC [Compound 24] | 7.31 | decreased considerably | – |
| COc1cc2nc(N3CCN(C(=O)C4C(C=C(C)C)C4(C)C)CC3)nc(N)c2cc1OC (stereo not shown) [Compound 27] | 7.15 | very low affinity | – |
| COc1cc2nc(N3CCN(C(=O)C#Cc4ccccc4)CC3)nc(N)c2cc1OC [Compound 28] | 7.92 | – | – |
| COc1cc2nc(N3CCN(C(=S)Nc4ccccc4)CC3)nc(N)c2cc1OC [Compound 29] | – | much higher affinity for alpha1 -adrenoceptors than prazosin | – |
| COc1cc2nc(N3CCN(C(=S)NC4CCCCC4)CC3)nc(N)c2cc1OC [Compound 30] | 8.27 | decrease | – |
| COc1cc2nc(N3CCN(C(=S)Nc4ccc(F)cc4)CC3)nc(N)c2cc1OC [Compound 31] | 8.62 | – | – |
| COc1cc2nc(N3CCN(C(=S)Nc4c(F)c(F)c(F)c(F)c4F)CC3)nc(N)c2cc1OC [Compound 32] | 7.80 | – | – |
| COc1cc2nc(N3CCN(C(=S)Nc4ccc(N=[N+]=[N-])cc4)CC3)nc(N)c2cc1OC [Compound 33] | 7.70 | decrease | – |
| COc1cc2nc(N3CCN(C(=S)Nc4ccc(N=C=S)cc4)CC3)nc(N)c2cc1OC [Compound 34] | 7.18 | – | – |
| COc1cc2nc(N3CCN(C(=S)Nc4cccc(N=C=S)c4)CC3)nc(N)c2cc1OC [Compound 35] | 7.30 | – | – |
| COc1cc2nc(N3CCN(C(=S)Nc4ccc(NC(=S)N5CC5)cc4)CC3)nc(N)c2cc1OC [Compound 36] | 7.01 | – | – |
| COC(=O)C=Cc1ccc(NC(=S)N2CCN(c3nc(N)c4cc(OC)c(OC)cc4n3)CC2)cc1 [Compound 37] | 7.43 | – | – |
| COc1cc2nc(N3CCN(C(=S)Nc4cccc5ccccc45)CC3)nc(N)c2cc1OC [Compound 38] | 7.41 | – | – |
| COc1cc2nc(N3CCN(C(=O)Nc4ccccc4)CC3)nc(N)c2cc1OC [Compound 39] | 7.56 | considerably decreased the affinity | – |
| COc1cc2nc(N3CCN(C(=O)c4cccc(CCl)c4)CC3)nc(N)c2cc1OC [Compound 40] | 7.93 | – | – |
| COc1cc2nc(N3CCN(C(=O)c4ccc(N=C=S)c(I)c4)CC3)nc(N)c2cc1OC [Compound 41] | 7.29 | much lower affinity | – |
| COC(=O)/C=C/C(=O)Nc1ccc(CCCCC(=O)N2CCN(c3nc(N)c4cc(OC)c(OC)cc4n3)CC2)cc1 [Compound 42] | 8.07 | – | – |
| COc1cc2nc(N3CCN(S(=O)(=O)c4ccc(C)cc4)CC3)nc(N)c2cc1OC [Compound 43] | 7.94 | low affinity | – |
| COc1cc2nc(N3CCN(S(=O)(=O)c4cccs4)CC3)nc(N)c2cc1OC [Compound 44] | 7.47 | low affinity | – |
| COc1cc2nc(N3CCN(C(=O)c4cc(Cl)nc(Cl)n4)CC3)nc(N)c2cc1OC [Compound 45] | 7.49 | failed to yield an active compound | – |
| COc1cc2nc(N3CCN(C(=O)C4CC5C=CC4C5)CC3)nc(N)c2cc1OC (stereo not shown) [Compound 46] | 8.61 | high affinity | – |
